Laboratory results as given in patent US12054510B2, “2′ and/or 5′ amino-acid ester phosphoramidate 3′-deoxy adenosine derivatives as anti-cancer compounds” (Nucana plc, priority 2014, dated 2024).

Columns and labels:
MOLT-4 [1] = experiment: Solid tumour and haematological malignancy assay (CellTiterGlo); assay type: cell-based; conditions: Homo sapiens, MOLT-4, 72 h, read-out: MI %
Procedure: (§1) In vitro viability assay were performed to assess the effects of compounds on cell viability in selected cell lines over 72 hr using the CellTiterGlo (CTG, Promega-G7573) assay. The tests were performed in duplicates with treatment of compounds at 9 points, 3.16 folds titration in 96 well plates over ˜72 hr. The compound starting concentrations were 198 mM. Cell viability assay using CellTiterGlo in 96-well plate were performed. Compound treatment 72 hrs, standard growth conditions, duplicates. Compounds were dissolved to 40 mM with thawed […]. Compounds were serially diluted at 3.16 fold in thawed DMSO, and warmed to 37° C. before being dissolved in media (2 μl+200 μl). After compounds were dissolved in media, media containing compounds were warmed to 37° C. in incubator and then compounds in media were added to cell plates (50 μl+50 μl) in duplicates. The compounds' final concentrations were from 198M to 19.9 nM. All compound solubilities were checked and recorded again, then the plates were transferred to CO2 tissue culture incubator immediately and incubated for 3 days. DMSO final concentration is 0.5%.

NCI-H929 = experiment: as above; assay type: cell-based; conditions: Homo sapiens, NCI-H929, 72 h, read-out: MI %
Procedure: as §1

RL = experiment: as above; assay type: cell-based; conditions: Homo sapiens, 72 h, read-out: MI %
Procedure: as §1

CCRFCEM = experiment: as above; assay type: cell-based
Procedure: as §1, with “The tests were performed in duplicates with treatment of compounds at 9 points, 3.16 folds titration in 96 well plates over ˜72 hr. The compound starting concentrations were 198 mM.” left out, “Compounds were serially diluted at 3.16 fold in thawed DMSO, and warmed to 37° C. before being dissolved in media (2 μl+200 μl).” left out, “The compounds' final concentrations were from 198M to 19.9 nM.” left out

HT29 = experiment: as above; assay type: cell-based
Procedure: as §1, with “The tests were performed in duplicates with treatment of compounds at 9 points, 3.16 folds titration in 96 well plates over ˜72 hr. The compound starting concentrations were 198 mM.” left out, “Compounds were serially diluted at 3.16 fold in thawed DMSO, and warmed to 37° C. before being dissolved in media (2 μl+200 μl).” left out, “The compounds' final concentrations were from 198M to 19.9 nM.” left out

KG-1 [2] = experiment: as above; assay type: cell-based
Procedure: as §1, with “The tests were performed in duplicates with treatment of compounds at 9 points, 3.16 folds titration in 96 well plates over ˜72 hr. The compound starting concentrations were 198 mM.” left out, “Compounds were serially diluted at 3.16 fold in thawed DMSO, and warmed to 37° C. before being dissolved in media (2 μl+200 μl).” left out, “The compounds' final concentrations were from 198M to 19.9 nM.” left out

MCF7 = experiment: as above; assay type: cell-based; conditions: Homo sapiens, MCF7, 72 h, read-out: MI %
Procedure: as §1, with “The tests were performed in duplicates with treatment of compounds at 9 points, 3.16 folds titration in 96 well plates over ˜72 hr. The compound starting concentrations were 198 mM.” left out, “Compounds were serially diluted at 3.16 fold in thawed DMSO, and warmed to 37° C. before being dissolved in media (2 μl+200 μl).” left out, “The compounds' final concentrations were from 198M to 19.9 nM.” left out

CCRF-CEM = experiment: CellTiterGlo cell viability assay, initial screening; assay type: cell-based
Procedure: (§2) In vitro viability assays were performed to assess the effects of compounds on cell viability in 7 selected cell lines over 72 hr using the CellTiterGlo (CTG, Promega-G7573) assay. The tests were performed in duplicates with treatment of compounds at 9 points, 3.16 folds titration in 96 well plates over ˜72 hr. The compound starting concentrations were […]. Cell viability assay using CellTiterGlo in 96-well plate were performed. The compound treatment was 72 hrs, under standard growth conditions, and in duplicate. Compounds were dissolved to 40 mM with thawed […]. Compounds were serially diluted at 3.16 fold in thawed DMSO, and warmed to 37° C. before being dissolved in media (2 μl+200 μl). After compounds were dissolved in media (media was also warmed to 37° C.). Media containing compounds were warmed to 37° C. in incubator and then compounds in media were added to cell plates (50 μl+50 μl), in duplicates. The compounds final concentrations were from […] to 19.9 nM. All compound solubilities were checked and recorded again, then the plates were transferred to CO2 tissue culture incubator immediately and incubated for 3 days. DMSO final concentration is 0.5%.

HL-60 = experiment: as above; assay type: cell-based
Procedure: as §2

HepG2 = experiment: as above; assay type: cell-based; conditions: HepG2; 72 hr; Table II
Procedure: as §2

K562 = experiment: as above; assay type: cell-based; conditions: 72 hr, Table II
Procedure: as §2

KG-1 [3] = experiment: as above; assay type: cell-based
Procedure: as §2

MCF-7 = experiment: as above; assay type: cell-based
Procedure: as §2

MOLT-4 [4] = experiment: as above; assay type: cell-based
Procedure: as §2

BxPC-3 = experiment: Solid tumour and haematological malignancy assay (CellTiterGlo); assay type: cell-based; conditions: 72 hr
Procedure: as §1

Jurkat = experiment: as above; assay type: cell-based; conditions: 72 hr
Procedure: as §1

SW620 = experiment: as above; assay type: cell-based; conditions: SW620; 72 hr
Procedure: as §1

Z138 = experiment: as above; assay type: cell-based; conditions: 72 hr
Procedure: as §1

CEM (TdT+ve) = experiment: ATP ViaLight plus cell viability assay; assay type: cell-based, Human; conditions: CEM
Procedure: (§3) Certain compounds of the invention were subjected to further studies to test the cytotoxic activity of certain compounds of the invention and also to measure their activity against 4 haematological cancer cell lines • TdT positive CEM (Human ALL) • TdT negative K562 (Human CML) • TdT negative H1-60 (Human ANLL) • RL (CRL-2261) non-HD lymphoma • The concentrations of the active metabolite dATP (Cordycepin triphosphate) in these cell lines was also measured. • The cytotoxic activity and the intracellular 3′-dATP concentrations were also studied in the presence of hENT1, Adenosine Kinase (AK) and Adenosine Deaminase pharmacological inhibitors in CEM and RL cancer cell lines. Said inhibitors that mimic known cancer resistance mechanisms. Methods Cell Culture
(§4) HL-60, K562, CCRF-CEM and RL cell lines were cultured in RPMI-1640 medium (Sigma Aldrich, UK), which were supplemented with 10% Fetal Bovine Serum (FBS) (PAA Laboratories), 1% amphotericin B (5.5 ml) and 1% penicillin/streptomycin (5.5 ml) (PAA Laboratories) and grown in flasks at 37° C. incubator with 5% CO2.
(§5) The amount of ATP was used as a measurement of cell number and cell viability. ATP ViaLight™ plus assay kit (Lonza, USA: Product No. LT07-121) to detect ATP in cells treated in luminescence compatible 96 well plates (initial concentration of cells was 1×10^4 cells/well) with cordycepin and ProTides at concentrations of: 0, 0.1, 0.5, 1, 5 and 10 μM, followed by incubation for 72 hours at 37° C. incubator with 5% CO2. For inhibitor studies, 10 μM of NBTI or 1 μM EHNA or A-134974 was added and left for 5 minutes before adding the drugs (see section 5 for inhibitor details).
(§6) After incubation, 50 μl of cell lysis reagent was added to the 96 well plates to release the intracellular ATP, followed by 100 μl of ATP monitoring reagent (AMR). The luminescent values of each well were determined using FLUOstar OPTIMA microplate reader (BMG Labtech) which convert ATP into light by using luciferase enzyme. Therefore, the amount of luminescence produced was directly proportional to the amount of ATP.
(§7) Cell lines were treated in the same way as described above but before treatment with drugs, a number of inhibitors were added: • 1) Nitrobenzylthioinosine (NBTI) (Sigma-Aldrich, St. Louis, MO, product # N2255) blocks nucleoside transporters • 2) EHNA hydrochloride (Sigma-Aldrich, St. Louis, MO, product # E114) blocks adenosine deaminase • 3) Adenosine kinase inhibitor A-134974 dihydrochloride hydrate (Sigma-Aldrich, St. Louis, MO, product # A2846): blocks adenosine kinase
(§8) The dose-response curves of cytotoxicity of the drugs was determined using non-linear regression analysis of percentage cell viability versus concentration and EC50 values were obtained. The intracellular assay was conducted in five replicates for each condition. Intracellular assay was determined using paired t test (two-tailed) analysis of 3′ ATP/ATP concentration and p-values were obtained. For all the analysis, Prism Software program (GraphPad Software) was used and Microsoft Powerpoint® 2013 was used to plot the results.

RL (CRL-2261) = experiment: ATP ViaLight plus cell viability assay; assay type: cell-based
Procedure: as §3, §4, §5, §6, §7, §8

BxPC-3-Luc = experiment: Solid tumour and haematological malignancy assay (CellTiterGlo); assay type: cell-based; conditions: 72 hr, Table VII
Procedure: as §1

## COc1nc(N)c2ncn([C@@H]3O[C@H](COP(=O)(N[C@@H](C)C(=O)OCc4ccccc4)Oc4cccc5ccccc45)C[C@H]3O)c2n1 (stereo partly drawn) [K, (2S)-benzyl 2-((((2S,4R,5R)-5-(6-amino-2-methoxy-9H-purin-9-yl)-4-hydroxytetrahydrofuran-2-yl)methoxy)(naphthalen-1-yloxy)phosphorylamino)propanoate]
MOLT-4 [1]
  Emax: 104%
NCI-H929
  Emax: 102%
RL
  Emax: 104%
CCRFCEM; Homo sapiens, CCRF-CEM, 72 h, read-out: MI %
  Emax: 102%
HT29; Homo sapiens, HT-29, 72 h, read-out: MI %
  Emax: 98%
KG-1 [2]; Homo sapiens, KG-1, 72 h, read-out: MI %
  Emax: 99%
MCF7
  Emax: 99%

## Nc1ncnc2c1ncn2[C@@H]1O[C@H](COP(=O)(NCC(=O)OCc2ccccc2)Oc2ccccc2)C[C@H]1O (stereo partly drawn) [C, Benzyl 2-(((((2S,4R,5R)-5-(6-amino-9H-purin-9-yl)-4-hydroxytetrahydrofuran-2-yl)methoxy)(phenoxy)phosphoryl)amino)acetate]
CCRF-CEM; CCRF-CEM, 72 hr, Table II
  M.I. %: maximum percentage inhibition of cell viability: 94%
HL-60; HL-60, 72 hr, Table II
  M.I. %: maximum percentage inhibition of cell viability: 82%
HepG2
  M.I. %: maximum percentage inhibition of cell viability: 59%
K562
  M.I. %: maximum percentage inhibition of cell viability: 92%
KG-1 [3]; KG-1, 72 hr, Table II
  M.I. %: maximum percentage inhibition of cell viability: 65%
MCF-7; MCF-7, 72 hr, Table II
  M.I. %: maximum percentage inhibition of cell viability: 87%
MOLT-4 [4]; MOLT-4, 72 hr, Table II
  M.I. %: maximum percentage inhibition of cell viability: 93%
BxPC-3
  MI %: 99%
Jurkat
  MI %: 100%
SW620
  MI %: 100%
Z138
  MI %: 100%
CCRFCEM; CCRFCEM, 72 hr
  MI %: 100%
HT29; HT29, 72 hr
  MI %: 99%
KG-1 [2]; KG-1, 72 hr
  MI %: 102%

## Nc1ncnc2c1ncn2[C@@H]1O[C@H](CO)C[C@H]1O [Cordycepin, 3′-deoxyadenosine, reference compound]
CCRF-CEM; human, 72 h
  M.I. %: maximum percentage inhibition of cell viability: 12%
HL-60; human, 72 h
  M.I. %: maximum percentage inhibition of cell viability: 88%
HepG2
  M.I. %: maximum percentage inhibition of cell viability: 66%
K562
  M.I. %: maximum percentage inhibition of cell viability: 88%
KG-1 [3]; human, 72 h
  M.I. %: maximum percentage inhibition of cell viability: 78%
MCF-7; human, 72 h
  M.I. %: maximum percentage inhibition of cell viability: 78%
MOLT-4 [4]; human, 72 h
  M.I. %: maximum percentage inhibition of cell viability: 52%
BxPC-3
  MI %: 22%
Jurkat
  MI %: 20%
CEM (TdT+ve); AK
  (FD) fold difference compared to control: 3
CEM (TdT+ve); EHNA
  (FD) fold difference compared to control: −16
CEM (TdT+ve); NBTI
  (FD) fold difference compared to control: 5
RL (CRL-2261); AK
  (FD) fold difference compared to control: 4
RL (CRL-2261); EHNA
  (FD) fold difference compared to control: 2
RL (CRL-2261); NBTI
  (FD) fold difference compared to control: 2

## CC(NP(=O)(OC[C@@H]1C[C@@H](O)[C@H](n2cnc3c(N)nc(Cl)nc32)O1)Oc1cccc2ccccc12)C(=O)OCc1ccccc1 (stereo in doubt) [S, (2R)-benzyl 2-((((2S,4R,5R)-5-(6-amino-2-chloro-9H-purin-9-yl)-4-hydroxytetrahydrofuran-2-yl)methoxy)(naphthalen-1-yloxy)phosphorylamino)propanoate]
BxPC-3-Luc
  MI %: 82.6%
